Assay results: PubChem BioAssay (NCI)
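These data come from cells grown in 96-well plates and exposed to compound for 48 hours at five concentrations. Abbreviation: GI50, concentration required for 50% inhibition of growth. TGI marks complete inhibition of growth.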

Legend:
Assay in all cases: NCI anticancer screen, dose series, 48 h
MALME-3M melanoma = test system: MALME-3M melanoma
PC-3 prostate = test system: PC-3 prostate
TK-10 renal = test system: TK-10 renal
OVCAR-8 ovarian = test system: OVCAR-8 ovarian
HCT-116 colon = test system: HCT-116 colon
SF-295 CNS = test system: SF-295 CNS
T-47D breast = test system: T-47D breast
UO-31 renal = test system: UO-31 renal
MOLT-4 leukemia = test system: MOLT-4 leukemia
KM12 colon = test system: KM12 colon

Row | SMILES | GI50 (MALME-3M melanoma) [µM] | TGI (MALME-3M melanoma) [µM] | GI50 (PC-3 prostate) [µM] | TGI (PC-3 prostate) [µM] | GI50 (TK-10 renal) [µM] | TGI (TK-10 renal) [µM] | GI50 (OVCAR-8 ovarian) [µM] | TGI (OVCAR-8 ovarian) [µM] | GI50 (HCT-116 colon) [µM] | TGI (HCT-116 colon) [µM] | GI50 (SF-295 CNS) [µM] | TGI (SF-295 CNS) [µM] | GI50 (T-47D breast) [µM] | TGI (T-47D breast) [µM] | GI50 (UO-31 renal) [µM] | TGI (UO-31 renal) [µM] | GI50 (MOLT-4 leukemia) [µM] | TGI (MOLT-4 leukemia) [µM] | GI50 (KM12 colon) [µM] | TGI (KM12 colon) [µM]
1 | O=C(Nc1cc(-c2cccnc2)nc(NCCCN2CCOCC2)n1)c1cc(Br)cc(C(F)(F)F)c1 | 1.76 | 3.58 | 4.03 | 15.7 | 5.07 | 18.1 | 2.98 | 8.59 | 2.09 | 4.81 | 1.94 | 3.93 | 3.72 | 16.1 | 1.4 | 3.39 | 3.63 | 13.1 | 3.62 | 13.6
2 | COC(=O)[C@]12CC[C@@H](C)[C@H](C)[C@@H]1C1=CC[C@@H]3[C@@]4(C)CC(=O)[C@H](OC(=O)c5ccco5)[C@@]5(C)COC(=C45)C[C@@]3(C)[C@]1(C)CC2 | 0.556 | > 100 | 0.592 | > 100 | 30.8 | > 100 | 2.47 | > 100 | 0.337 | > 100 | 28.3 | > 100 | 0.667 | > 100 | 1.7 | > 100 | 0.669 | > 100 | 2.22 | > 100
3 | CN(C)CCNc1nc2ccccc2c2c(=O)c3ccccc3sc12 | 1.86 | 4.05 | 1.84 | 4.13 | 2.52 | 6.15 | 2.36 | 6.92 | 1.41 | 2.79 | 1.76 | 4.03 | 4.91 | 22.9 | 1.08 | 3.37 | 2.22 | 6.1 | 1.71 | 3.72
4 | O=C(NCCCCOCC#Cc1ccccc1C#CCS(=O)(=O)c1ccccc1)c1cc2ccccc2[nH]1 | 7.85 | 24.1 | 7.1 | 36.5 | 23.5 | > 50 | 11.4 | 48.9 | 9.63 | 26.6 | 15.9 | > 44.7 | 12.3 | > 37.5 | 4.05 | 11.8 |  | > 10.1 | 17.5 | > 50
5 | O=C1c2ccccc2-c2c1c1ccccc1c(=O)n2-c1ccccc1 |  | > 100 |  | > 100 |  | 27 |  | 27.4 |  | 26.8 |  | 23.6 |  | 46.7 |  | 23.5 |  | > 100 |  | > 100
6 | CCOC(=S)SCN1C(=O)c2ccccc2S1(=O)=O | 1.94 | 8.76 | 33 | > 100 | 29.4 | > 100 | 20.8 | > 100 | 13.6 | 26.5 | 18 | 59.2 | 24.2 | 80.5 | 14.3 | 29.4 | 32.7 | > 100 | 35 | > 100
7 | CC(C)(C)C(=O)OCc1nc2cc3c(cc2c(=O)[nH]1)CCC3=O | > 100 | > 100 | > 100 | > 100 | > 100 | > 100 | > 100 | > 100 | > 100 | > 100 | > 100 | > 100 | > 100 | > 100 | > 100 | > 100 | > 100 | > 100 | > 100 | > 100
8 | Cc1c(C(=O)O[C@H]2[C@@H]3[C@H](C)CC[C@H]3[C@]3(C)O[C@@]2(C2CCCCC2)C[C@H]3OC(=O)CO)ccc2ccccc12 | 7.24 | 14.5 | 6.96 | 15.6 | 8.12 | 15.4 | 6.64 | 13.8 | 7.57 | 14.5 | 7.04 | 13.6 | 5.37 | 11.6 | 0.408 | 7.96 | 7.15 | 17.7 | 8.35 | 17.4
9 | Nc1c(C(=O)Nc2cccc(Br)c2)sc2nc3c(cc12)C(O)CCC3 (centres undefined) | 0.522 | > 87.1 | 0.349 | 24.4 | 14.2 | 51.6 | 0.77 | 37.6 | 0.483 | > 51.6 | 0.314 | 16.2 | 13.9 | > 100 | 0.685 | 40.3 | 0.518 | 98 | 0.399 | > 51
